{"source": "paper PMC5218480", "about": "(PLoS ONE, 2017)", "system": "MV-4-11 cells", "experiment": "Gene expression microarray analysis (Affymetrix PrimeView) and GSEA", "format": "cell-based, human", "design": "RFU PODN (11730768_x_at) / Fold change /veh PODN (11730768_x_at) / RFU LINC00158 (11744669_a_at) / Fold change /veh LINC00158 (11744669_a_at) / RFU DUSP10 (11751237_a_at) / Fold change /veh DUSP10 (11751237_a_at) / RFU ID3 (11757404_x_at) / Fold change /veh ID3 (11757404_x_at) / RFU PLEKHG5 (11737974_s_at) / Fold change /veh PLEKHG5 (11737974_s_at) / RFU LRRC4B (11730491_at) / Fold change /veh LRRC4B (11730491_at) / RFU GIMAP4 (11747438_a_at) / Fold change /veh GIMAP4 (11747438_a_at) / RFU KRT8 (11758183_x_at) / Fold change /veh KRT8 (11758183_x_at) / RFU CNN1 (11734310_a_at) / Fold change /veh CNN1 (11734310_a_at) / RFU VPS37D (11726825_at) / Fold change /veh VPS37D (11726825_at) / RFU C10orf10 (11716522_x_at) / Fold change /veh C10orf10 (11716522_x_at) / RFU KIR2DL2 /// KIR2DL4 /// KIR2DL5A /// KIR2DL5B /// KIR2DS1 /// KIR2DS2 /// KIR2DS3 /// KIR2DS4 /// KIR3DL3 /// KIR3DL3 /// KIR3DS1 (11738374_at) / Fold change /veh KIR2DL2 /// KIR2DL4 /// KIR2DL5A /// KIR2DL5B /// KIR2DS1 /// KIR2DS2 /// KIR2DS3 /// KIR2DS4 /// KIR3DL3 /// KIR3DL3 /// KIR3DS1 (11738374_at) / RFU C1QL1 (11718748_at) / Fold change /veh C1QL1 (11718748_at) / RFU TMPRSS4 (11747572_a_at) / Fold change /veh TMPRSS4 (11747572_a_at) / RFU HAMP (11756126_x_at) / Fold change /veh HAMP (11756126_x_at) / RFU RNFT2 (11725882_a_at) / Fold change /veh RNFT2 (11725882_a_at) / RFU NR4A2 (11747474_a_at) / Fold change /veh NR4A2 (11747474_a_at) / RFU ABCC12 (11746883_a_at) / Fold change /veh ABCC12 (11746883_a_at) / RFU TMEM136 (11760407_x_at) / Fold change /veh TMEM136 (11760407_x_at) / RFU CLDN22 /// WWC2 (11732394_at) / Fold change /veh CLDN22 /// WWC2 (11732394_at) / RFU HLA-DPB1 (11760878_x_at) / Fold change /veh HLA-DPB1 (11760878_x_at) / RFU SPINT1 (11716480_a_at) / Fold change /veh SPINT1 (11716480_a_at) / RFU GAP43 (11754022_s_at) / Fold change /veh GAP43 (11754022_s_at) / RFU A4GNT (11735810_at) / Fold change /veh A4GNT (11735810_at) / RFU PRB3 (11715151_x_at) / Fold change /veh PRB3 (11715151_x_at) / RFU TUBB4B (11761932_at) / Fold change /veh TUBB4B (11761932_at) / RFU CAPN14 (11732068_a_at) / Fold change /veh CAPN14 (11732068_a_at) / RFU TMCC2 (11721928_a_at) / Fold change /veh TMCC2 (11721928_a_at) / RFU IRGQ (11745062_a_at) / Fold change /veh IRGQ (11745062_a_at) / RFU FAM174B (11720279_a_at) / Fold change /veh FAM174B (11720279_a_at) / RFU TMPRSS4 (11748680_a_at) / Fold change /veh TMPRSS4 (11748680_a_at) / RFU FAM212B (11763350_a_at) / Fold change /veh FAM212B (11763350_a_at) / RFU PLEKHG5 (11743358_a_at) / Fold change /veh PLEKHG5 (11743358_a_at) / RFU ZSCAN30 (11745921_a_at) / Fold change /veh ZSCAN30 (11745921_a_at) / RFU CMKLR1 (11741424_a_at) / Fold change /veh CMKLR1 (11741424_a_at) / RFU LOC101060620 /// MAPK8IP1 (11723275_at) / Fold change /veh LOC101060620 /// MAPK8IP1 (11723275_at) / RFU SPTSSB (11747773_x_at) / Fold change /veh SPTSSB (11747773_x_at) / RFU PRSS12 (11739890_at) / Fold change /veh PRSS12 (11739890_at) / RFU BIN1 (11741810_x_at) / Fold change /veh BIN1 (11741810_x_at) / RFU WNT11 (11732464_a_at) / Fold change /veh WNT11 (11732464_a_at) / RFU C10orf10 (11716521_a_at) / Fold change /veh C10orf10 (11716521_a_at) / RFU C5orf56 (11738089_at) / Fold change /veh C5orf56 (11738089_at) / RFU CYB561 (11721691_x_at) / Fold change /veh CYB561 (11721691_x_at) / RFU ANKRD19P (11752326_a_at) / Fold change /veh ANKRD19P (11752326_a_at) / RFU OR2T12 /// OR2T33 /// OR2T8 (11738714_s_at) / Fold change /veh OR2T12 /// OR2T33 /// OR2T8 (11738714_s_at) / RFU VCAN (11748164_a_at) / Fold change /veh VCAN (11748164_a_at) / RFU JSRP1 (11732532_at) / Fold change /veh JSRP1 (11732532_at) / RFU KRTAP10-11 (11738290_x_at) / Fold change /veh KRTAP10-11 (11738290_x_at) / RFU MYO3A (11730013_a_at) / Fold change /veh MYO3A (11730013_a_at) / RFU EBF3 (11725865_a_at) / Fold change /veh EBF3 (11725865_a_at) / RFU CAMK2N1 (11719241_x_at) / Fold change /veh CAMK2N1 (11719241_x_at) / RFU C5orf56 (11738088_a_at) / Fold change /veh C5orf56 (11738088_a_at) / RFU OLFML3 (11715873_a_at) / Fold change /veh OLFML3 (11715873_a_at) / RFU LOC100653217 /// NTM (11731650_a_at) / Fold change /veh LOC100653217 /// NTM (11731650_a_at) / RFU MAPK11 (11762145_a_at) / Fold change /veh MAPK11 (11762145_a_at) / RFU FIZ1 (11724087_x_at) / Fold change /veh FIZ1 (11724087_x_at) / RFU OASL (11726364_x_at) / Fold change /veh OASL (11726364_x_at) / RFU SOX15 (11748057_x_at) / Fold change /veh SOX15 (11748057_x_at) / RFU CD79A (11719716_a_at) / Fold change /veh CD79A (11719716_a_at) / RFU HIST1H1D (11736915_at) / Fold change /veh HIST1H1D (11736915_at) / RFU CASKIN2 (11723855_a_at) / Fold change /veh CASKIN2 (11723855_a_at) / RFU LOC730098 (11760151_x_at) / Fold change /veh LOC730098 (11760151_x_at) / RFU OR4N2 (11742367_at) / Fold change /veh OR4N2 (11742367_at) / RFU PRRT2 (11749266_a_at) / Fold change /veh PRRT2 (11749266_a_at) / RFU SNX32 (11753110_a_at) / Fold change /veh SNX32 (11753110_a_at) / RFU CDHR5 (11726645_a_at) / Fold change /veh CDHR5 (11726645_a_at) / RFU RCAN1 (11760418_a_at) / Fold change /veh RCAN1 (11760418_a_at) / RFU FAM167A (11723789_a_at) / Fold change /veh FAM167A (11723789_a_at) / RFU FAM26E (11764081_at) / Fold change /veh FAM26E (11764081_at) / RFU ISYNA1 (11749810_s_at) / Fold change /veh ISYNA1 (11749810_s_at) / RFU ACY1 (11761880_at) / Fold change /veh ACY1 (11761880_at) / RFU 11764098_at / Fold change /veh 11764098_at / RFU SAMD14 (11745864_x_at) / Fold change /veh SAMD14 (11745864_x_at) / RFU NPB (11741838_a_at) / Fold change /veh NPB (11741838_a_at) / RFU TMPRSS6 (11731388_a_at) / Fold change /veh TMPRSS6 (11731388_a_at) / RFU KRTAP10-2 (11738614_at) / Fold change /veh KRTAP10-2 (11738614_at) / RFU ARHGAP8 /// PRR5-ARHGAP8 (11727945_x_at) / Fold change /veh ARHGAP8 /// PRR5-ARHGAP8 (11727945_x_at) / RFU KRTAP5-7 /// NADSYN1 (11734609_at) / Fold change /veh KRTAP5-7 /// NADSYN1 (11734609_at) / RFU RASL12 (11751679_a_at) / Fold change /veh RASL12 (11751679_a_at) / RFU CDKN2B (11736163_a_at) / Fold change /veh CDKN2B (11736163_a_at) / RFU PRF1 (11729649_at) / Fold change /veh PRF1 (11729649_at) / RFU, ZNF638 /// ZNF638-IT1 / Fold change vs veh, ZNF638 /// ZNF638-IT1 / RFU, PANK3 / Fold change vs veh, PANK3 / RFU, SH3YL1 / Fold change vs veh, SH3YL1 / RFU, ZEB2 / Fold change vs veh, ZEB2 / RFU, NRIP1 / Fold change vs veh, NRIP1 / RFU, PTTG1IP / Fold change vs veh, PTTG1IP / RFU, CAPN2 / Fold change vs veh, CAPN2 / RFU, MED14 / Fold change vs veh, MED14 / RFU, SNORA58 / Fold change vs veh, SNORA58 / RFU, C1orf63 / Fold change vs veh, C1orf63 / RFU, LRRFIP1 / Fold change vs veh, LRRFIP1 / RFU, NDUFAF7 / Fold change vs veh, NDUFAF7 / RFU, SLC12A2 / Fold change vs veh, SLC12A2 / RFU, IBTK / Fold change vs veh, IBTK / RFU, ESF1 / Fold change vs veh, ESF1 / Fold change vs veh, TMEM50B / RFU, TAOK1 / Fold change vs veh, TAOK1 / RFU, ACBD3 / Fold change vs veh, ACBD3 / RFU, TMA16 / Fold change vs veh, TMA16 / RFU, RWDD3 / Fold change vs veh, RWDD3 / RFU, BCAT1 / Fold change vs veh, BCAT1 / RFU, EDEM3 / Fold change vs veh, EDEM3 / RFU, TMEM33 / Fold change vs veh, TMEM33 / RFU, WDR75 / Fold change vs veh, WDR75 / RFU, AHCTF1 / Fold change vs veh, AHCTF1 / RFU, TFRC / Fold change vs veh, TFRC / RFU, ZDHHC17 / Fold change vs veh, ZDHHC17 / RFU, NOM1 / Fold change vs veh, NOM1 / RFU, ARL8B / Fold change vs veh, ARL8B / RFU, ZBTB11 / Fold change vs veh, ZBTB11 / RFU, TAMM41 / Fold change vs veh, TAMM41 / RFU, KIAA1704 /// LOC100996395 / Fold change vs veh, KIAA1704 /// LOC100996395 / RFU, ING1 / Fold change vs veh, ING1 / RFU, TRMT61B / Fold change vs veh, TRMT61B / RFU, FUBP3 / Fold change vs veh, FUBP3 / RFU, TP53 / Fold change vs veh, TP53 / RFU, TNKS2 / Fold change vs veh, TNKS2 / RFU, ZFP14 / Fold change vs veh, ZFP14 / RFU, ACTR2 / Fold change vs veh, ACTR2 / RFU, PPP3R1 / Fold change vs veh, PPP3R1 / RFU, PIK3R1 / Fold change vs veh, PIK3R1 / RFU, HNRNPA1 / Fold change vs veh, HNRNPA1 / RFU, RNF170 / Fold change vs veh, RNF170 / RFU, ZNF28 / Fold change vs veh, ZNF28 / RFU, RNGTT / Fold change vs veh, RNGTT / RFU, OGT / Fold change vs veh, OGT / RFU, BRD1 / Fold change vs veh, BRD1 / RFU, MARS / Fold change vs veh, MARS / RFU, ZNF655 / Fold change vs veh, ZNF655 / RFU, FAHD1 / Fold change vs veh, FAHD1 / RFU, BDP1 / Fold change vs veh, BDP1 / RFU, LRRCC1 / Fold change vs veh, LRRCC1 / RFU, ARID1A / Fold change vs veh, ARID1A / RFU, ZNF146 / Fold change vs veh, ZNF146 / RFU, ZNF330 / Fold change vs veh, ZNF330 / RFU, GPN3 / Fold change vs veh, GPN3 / RFU, C9orf123 / Fold change vs veh, C9orf123 / RFU, N4BP2L2 / Fold change vs veh, N4BP2L2 / RFU, ARFIP1 / Fold change vs veh, ARFIP1 / RFU, FAM179B / Fold change vs veh, FAM179B / RFU, BCL10 / Fold change vs veh, BCL10 / RFU, UHRF1BP1L / Fold change vs veh, UHRF1BP1L / RFU, BET1 / Fold change vs veh, BET1 / RFU, CNOT2 / Fold change vs veh, CNOT2 / RFU, ZNF268 / Fold change vs veh, ZNF268 / Fold change vs veh, ZNF507 / RFU, DGCR2 / Fold change vs veh, DGCR2 / RFU, WDSUB1 / Fold change vs veh, WDSUB1 / Fold change vs veh, HSP90B1 /// MIR3652 / RFU, ADSS / Fold change vs veh, ADSS / RFU, GK / Fold change vs veh, GK / RFU, ZNF148 / Fold change vs veh, ZNF148 / RFU, TAF9 / Fold change vs veh, TAF9 / RFU, SLC1A5 / Fold change vs veh, SLC1A5 / RFU, SLMO2 / Fold change vs veh, SLMO2 / RFU, ABCC4 / Fold change vs veh, ABCC4 / RFU, LOC101060439 /// RAP1B / Fold change vs veh, LOC101060439 /// RAP1B / RFU, RFX7 / Fold change vs veh, RFX7 / RFU, GTPBP10 / Fold change vs veh, GTPBP10 / RFU, CNEP1R1 / Fold change vs veh, CNEP1R1 / RFU, BIVM-ERCC5 /// ERCC5 / Fold change vs veh, BIVM-ERCC5 /// ERCC5 / RFU, ILF3 / Fold change vs veh, ILF3 / RFU 11762660_at / Fold change /veh 11762660_at / RFU VCAN (11757783_s_at) / Fold change /veh VCAN (11757783_s_at) / RFU DDX43 (11728927_at) / Fold change /veh DDX43 (11728927_at) / RFU KRT8 (11758188_x_at) / Fold change /veh KRT8 (11758188_x_at) / RFU NKD1 (11759106_at) / Fold change /veh NKD1 (11759106_at) / RFU SRD5A1 (11742802_a_at) / Fold change /veh SRD5A1 (11742802_a_at) / RFU TPSAB1 /// TPSB2 (11721975_s_at) / Fold change /veh TPSAB1 /// TPSB2 (11721975_s_at) / RFU GSTM3 (11746129_a_at) / Fold change /veh GSTM3 (11746129_a_at) / RFU IL23R (11737362_x_at) / Fold change /veh IL23R (11737362_x_at) / RFU TMEM51 (11727254_a_at) / Fold change /veh TMEM51 (11727254_a_at) / RFU PIWIL2 (11732686_x_at) / Fold change /veh PIWIL2 (11732686_x_at) / RFU ORM1 (11744905_x_at) / Fold change /veh ORM1 (11744905_x_at) / RFU CCDC152 (11743942_at) / Fold change /veh CCDC152 (11743942_at) / RFU ECM1 (11717891_a_at) / Fold change /veh ECM1 (11717891_a_at) / RFU IL23R (11748794_a_at) / Fold change /veh IL23R (11748794_a_at) / RFU TNFAIP8L3 (11732012_x_at) / Fold change /veh TNFAIP8L3 (11732012_x_at) / RFU MBOAT4 (11741988_at) / Fold change /veh MBOAT4 (11741988_at) / RFU 11764193_at / Fold change /veh 11764193_at / RFU TMEM53 (11763286_at) / Fold change /veh TMEM53 (11763286_at) / RFU MAGEB2 (11727129_at) / Fold change /veh MAGEB2 (11727129_at) / RFU TMEM200A (11744735_a_at) / Fold change /veh TMEM200A (11744735_a_at) / RFU CCDC152 (11751479_a_at) / Fold change /veh CCDC152 (11751479_a_at) / RFU FAM211A (11726209_a_at) / Fold change /veh FAM211A (11726209_a_at) / RFU RGS16 (11746705_a_at) / Fold change /veh RGS16 (11746705_a_at) / RFU VCAN (11755009_s_at) / Fold change /veh VCAN (11755009_s_at) / RFU RHOB (11743442_s_at) / Fold change /veh RHOB (11743442_s_at) / RFU RGS16 (11720943_a_at) / Fold change /veh RGS16 (11720943_a_at) / RFU RGS16 (11720944_at) / Fold change /veh RGS16 (11720944_at) / RFU, VPS4B / Fold change vs veh, VPS4B / RFU, CREB1 / Fold change vs veh, CREB1 / RFU, DNAJC13 / Fold change vs veh, DNAJC13 / RFU, GNAQ / Fold change vs veh, GNAQ / RFU, CDK5R1 / Fold change vs veh, CDK5R1 / RFU, ZRANB3 / Fold change vs veh, ZRANB3 / RFU, CUL4A / Fold change vs veh, CUL4A / RFU, CCNY / Fold change vs veh, CCNY / RFU, UFL1 / Fold change vs veh, UFL1 / RFU, COG3 / Fold change vs veh, COG3 / RFU, DIAPH2 / Fold change vs veh, DIAPH2 / RFU, SKA2 / Fold change vs veh, SKA2 / RFU, AFF3 / Fold change vs veh, AFF3 / RFU, LMF1 / Fold change vs veh, LMF1 / RFU, IPO11 / Fold change vs veh, IPO11 / RFU, DFFB / Fold change vs veh, DFFB / RFU, FOXP1 / Fold change vs veh, FOXP1 / RFU, CARD8 / Fold change vs veh, CARD8 / RFU, STRN3 / Fold change vs veh, STRN3 / RFU, ADK / Fold change vs veh, ADK / RFU, RASSF2 / Fold change vs veh, RASSF2 / RFU, WIPF1 / Fold change vs veh, WIPF1 / RFU, LARP1B / Fold change vs veh, LARP1B / RFU, RASA1 / Fold change vs veh, RASA1 / RFU, RB1 / Fold change vs veh, RB1 / RFU, PPFIA1 / Fold change vs veh, PPFIA1 / RFU, MAT2A / Fold change vs veh, MAT2A / RFU, CCT5 / Fold change vs veh, CCT5 / RFU, WDR92 / Fold change vs veh, WDR92 / RFU, CUX1 / Fold change vs veh, CUX1 / RFU, TTC7A / Fold change vs veh, TTC7A / RFU, TMEM135 / Fold change vs veh, TMEM135 / RFU, DEPTOR / Fold change vs veh, DEPTOR / RFU, CPM / Fold change vs veh, CPM / RFU, DNAJB6 / Fold change vs veh, DNAJB6 / RFU, CACNA2D3 / Fold change vs veh, CACNA2D3 / RFU, DTX4 / Fold change vs veh, DTX4 / RFU, TFCP2 / Fold change vs veh, TFCP2 / RFU, GMCL1 /// GMCL1P1 / Fold change vs veh, GMCL1 /// GMCL1P1 / RFU, AEBP2 / Fold change vs veh, AEBP2 / RFU, SNHG1 /// SNORD22 /// SNORD25 /// SNORD26 /// SNORD27 /// SNORD28 /// SNORD29 /// SNORD31 / Fold change vs veh, SNHG1 /// SNORD22 /// SNORD25 /// SNORD26 /// SNORD27 /// SNORD28 /// SNORD29 /// SNORD31 / Fold change (Aza/veh), C12orf56 (ProbeSet 11735607_a_at) / Fold change (ACY-1035/veh), C12orf56 (ProbeSet 11735607_a_at) / Fold change (Aza/veh), FGFR1OP (ProbeSet 11751329_s_at) / Fold change (ACY-1035/veh), FGFR1OP (ProbeSet 11751329_s_at) / Fold change (Aza/veh), VPS36 (ProbeSet 11739960_a_at) / Fold change (ACY-1035/veh), VPS36 (ProbeSet 11739960_a_at) / RFU SYPL1 (11715823_x_at) / Fold change /veh SYPL1 (11715823_x_at) / RFU IGFBP7 (11715501_s_at) / Fold change /veh IGFBP7 (11715501_s_at) / RFU REEP3 (11722064_at) / Fold change /veh REEP3 (11722064_at) / RFU IGLL1 (11728026_x_at) / Fold change /veh IGLL1 (11728026_x_at): dose or concentration left out as unconfirmed", "conditions": "ProbeSet 11716999_a_at; LIST D"}
{"smiles": "Nc1ccc(-c2cccs2)cc1NC(=O)c1ccc2c(c1)cc(C1CC1)n2CCN1CCOCC1", "note": "[ACY-1035]", "values": [{"measurement": "RFU, RASA1", "value": 200.63, "unit": "RFU"}]}
